Results: paper PMC10287566, “Signaling-specific inhibition of the CB1 receptor for cannabis use disorder: phase 1 and phase 2a randomized trials” (Nature Medicine, 2023)

How the values were obtained:
volunteers with CUD [1] = experiment: Phase 2a study, safety; assay type: in vivo, human
Text: Data from the first dose level were reviewed by the Data Safety Monitoring Board before ascending to the next dose level.
On day 6 of each period, before discharge from the research center, participants had sitting blood pressure and pulse rate measurements, clinical laboratory tests (chemistry, hematology and urinalysis) and body weight taken. The study start date was 23 October 2018; primary completion date was 31 July 2020; and actual study completion date was 1 January 2021. After the second study phase, participants were contacted 28 d after discharge so that we could inquire about the occurrence of any serious AEs (including pregnancies) that may have occurred since leaving the research site.

volunteers with CUD [2] = experiment: Phase 2a study, cannabis self-administration; assay type: in vivo, human
Protocol: Participants, in groups of 3−4, completed two 5-d inpatient periods (first period ‘A’ and second period ‘B’) separated by a ≥ 14-d outpatient washout. During the two testing periods, participants received AEF0117 or matching placebo in counterbalanced order (two dosing sequences: AEF0117 first or placebo first). Participants took capsules at 9:00 each day and then smoked a controlled amount of cannabis (approximately 67 mg of THC smoked over 6 min) 3.5 h later (12:30). Ratings of the subjective effects of cannabis were done five times after cannabis administration (20 min, 40 min, 60 min, 90 min and 120 min after cannabis) using a VAS (0–100 mm). […] Participants were told that the cannabis strength could vary from day to day and between participants but that the cannabis they each received at 12:30 that day was the strength available for self-administration that day.
On study days 2–5, beginning at 14:30, participants were given the option to self-administer individual puffs of cannabis (up to six puffs per timepoint) every 2 h until 20:30 (maximum of 24 puffs per day). Fifteen minutes before each self-administration opportunity, participants indicated the number of puffs they chose to purchase ($2 per puff), and they would pay for it (using faux money that was then subtracted from their study stipend) before receiving their individual ashtray, cannabis cigarette and lighter.

human CB1 = human CB1 (Homo sapiens, UniProt P21554); experiment: THC-induced decrease in cAMP in CHO-hCB1 cells; assay type: cell-based; set-up: host or cells: CHO-K1
Chain of human CB1 (P21554 whole entry): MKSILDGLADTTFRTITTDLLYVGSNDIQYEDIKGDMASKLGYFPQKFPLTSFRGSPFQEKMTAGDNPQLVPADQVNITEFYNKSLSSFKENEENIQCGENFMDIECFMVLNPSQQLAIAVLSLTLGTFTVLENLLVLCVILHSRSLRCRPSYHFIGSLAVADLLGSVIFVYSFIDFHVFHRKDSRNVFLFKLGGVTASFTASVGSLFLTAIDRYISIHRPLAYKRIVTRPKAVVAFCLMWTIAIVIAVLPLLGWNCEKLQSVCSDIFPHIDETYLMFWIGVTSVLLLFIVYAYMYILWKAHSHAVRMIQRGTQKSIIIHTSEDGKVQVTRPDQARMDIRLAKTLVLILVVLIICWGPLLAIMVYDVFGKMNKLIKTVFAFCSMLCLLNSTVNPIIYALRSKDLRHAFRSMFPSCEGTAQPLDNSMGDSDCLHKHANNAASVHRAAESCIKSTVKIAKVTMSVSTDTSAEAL
Protocol: CHO cells stably expressing the human CB1 receptor (CHO-hCB1) were used in these experiments (ES-110C, PerkinElmer).
CHO-hCB1 cells were treated by concomitantly adding THC and the test compound for 45 min. Forskolin (2.5 µM) was also simultaneously added in all the conditions tested to sustain cAMP basal level. At the end of the treatment, cells were lysed for cAMP quantification. All measures were performed in triplicate in one experiment.
The quantitative determination of cAMP was done using a competitive fluorescence immunoassay. Data were expressed as % of Δ fluorescence (ΔF) that was calculated as follows: ΔF% = (sample fluorescence − negative control fluorescence) / negative control fluorescence. These experiments were done by the CRO Fluofarma.

mice [3] = experiment: THC-induced impairment of pre-pulse inhibition; assay type: in vivo
[4] = GLP mutagenic and genotoxic studies (Ames, chromosome aberration, micronucleus); conditions: GLP in vitro and in vivo studies
Protocol: The dose of 816 µg per plate is approximately a concentration of 84 µM.
Human lymphocytes were taken from young (18–35 years old) healthy non-smoker individuals.
This assay was carried out both with and without metabolic activation using Aroclor 1254-induced S9 from rat livers (5%). In the test performed without metabolic activation, two treatment durations were studied: (1) 4 h + 16 h recovery period (short-term treatment) and (2) 20 h without recovery period (continuous treatment). In the test performed with metabolic activation, the treatment period of 4 h + 16 h recovery period with 5% S9 mix was used.
As a control for the genotoxicity induction, a single i.p. injection 24 h before sampling of the reference substance cyclophosphamide (CPA, Baxter, batch 5K044J in NaCl at 0.9% in distilled water, at a dose of 25 mg kg^−1 under a volume of 10 ml kg^−1) was used.

mice [5] = experiment: THC-induced decrease in social interaction; assay type: in vivo
rats = experiment: Irwin test and body temperature (GLP); assay type: in vivo; conditions: rats, GLP
Protocol: The study involved four groups of six male Wistar rats weighing between 154.0 g and 185.9 g. […] On study day, animals were first scored by the Irwin standardized observation battery, and body temperature was measured. […] Irwin scores and measurement of body temperature were done again at 1, 3, 6, 8 and 24 h after dose.

[6] = Impairment of pre-pulse inhibition
[7] = Impairment of social interaction

COc1ccc(CO[C@H]2CC[C@@]3(C)C(=CC[C@H]4[C@@H]5CC[C@H](C(C)=O)[C@@]5(C)CC[C@@H]43)C2)cc1 [AEF0117, 3β-(4-methoxybenzyloxy)pregn-5-en-20-one]
Number of TEAEs (volunteers with CUD [1]; 0.06 mg/d 5 d): 9 E | Number of participants with a TEAE leading to discontinuation (volunteers with CUD [1]; 0.06 mg/d 5 d): 0 n (%) | Number of participants with an SAE (volunteers with CUD [1]; 0.06 mg/d 5 d): 0 n (%) | Number of participants with at least one TEAE (volunteers with CUD [1]; 0.06 mg/d 5 d): 6 (42.9) n (%) | Participants with TEAE: Mild (volunteers with CUD [1]; 0.06 mg/d 5 d): 6 (42.9) n (%) | Participants with TEAE: Moderate (volunteers with CUD [1]; 0.06 mg/d 5 d): 0 n (%) | Participants with TEAE: Not related (volunteers with CUD [1]; 0.06 mg/d 5 d): 2 (14.3) n (%) | Participants with TEAE: Related (volunteers with CUD [1]; 0.06 mg/d 5 d): 6 (42.9) n (%) | Participants with TEAE: Severe (volunteers with CUD [1]; 0.06 mg/d 5 d): 0 n (%) | TEAEs by SOC: Cardiac disorders (volunteers with CUD [1]; 0.06 mg/d 5 d): 1 (7.1) n (%) | TEAEs by SOC: Ear and labyrinth disorders (volunteers with CUD [1]; 0.06 mg/d 5 d): 0 n (%) | TEAEs by SOC: Gastrointestinal disorders (volunteers with CUD [1]; 0.06 mg/d 5 d): 0 n (%) | TEAEs by SOC: General disorders and administration site conditions (volunteers with CUD [1]; 0.06 mg/d 5 d): 1 (7.1) n (%) | TEAEs by SOC: Infections and infestations (volunteers with CUD [1]; 0.06 mg/d 5 d): 0 n (%) | TEAEs by SOC: Injury, poisoning and procedural complications (volunteers with CUD [1]; 0.06 mg/d 5 d): 0 n (%) | TEAEs by SOC: Investigations (volunteers with CUD [1]; 0.06 mg/d 5 d): 3 (21.4) n (%) | TEAEs by SOC: Musculoskeletal and connective tissue disorders (volunteers with CUD [1]; 0.06 mg/d 5 d): 0 n (%) | TEAEs by SOC: Nervous system disorders (volunteers with CUD [1]; 0.06 mg/d 5 d): 3 (21.4) n (%) | TEAEs by SOC: Psychiatric disorders (volunteers with CUD [1]; 0.06 mg/d 5 d): 0 n (%) | TEAEs by SOC: Renal and urinary disorders (volunteers with CUD [1]; 0.06 mg/d 5 d): 0 n (%) | TEAEs by SOC: Respiratory, thoracic and mediastinal disorders (volunteers with CUD [1]; 0.06 mg/d 5 d): 1 (7.1) n (%) | TEAEs by SOC: Skin and subcutaneous tissue disorders (volunteers with CUD [1]; 0.06 mg/d 5 d): 0 n (%) | Number of TEAEs (volunteers with CUD [1]; 1 mg/d 5 d): 24 E | Number of participants with a TEAE leading to discontinuation (volunteers with CUD [1]; 1 mg/d 5 d): 1 (6.7) n (%) | Number of participants with an SAE (volunteers with CUD [1]; 1 mg/d 5 d): 0 n (%) | Number of participants with at least one TEAE (volunteers with CUD [1]; 1 mg/d 5 d): 8 (53.3) n (%) | Participants with TEAE: Mild (volunteers with CUD [1]; 1 mg/d 5 d): 8 (53.3) n (%) | Participants with TEAE: Moderate (volunteers with CUD [1]; 1 mg/d 5 d): 1 (6.7) n (%) | Participants with TEAE: Not related (volunteers with CUD [1]; 1 mg/d 5 d): 1 (6.7) n (%) | Participants with TEAE: Related (volunteers with CUD [1]; 1 mg/d 5 d): 8 (53.3) n (%) | Participants with TEAE: Severe (volunteers with CUD [1]; 1 mg/d 5 d): 1 (6.7) n (%) | TEAEs by SOC: Cardiac disorders (volunteers with CUD [1]; 1 mg/d 5 d): 0 n (%) | TEAEs by SOC: Ear and labyrinth disorders (volunteers with CUD [1]; 1 mg/d 5 d): 0 n (%) | TEAEs by SOC: Gastrointestinal disorders (volunteers with CUD [1]; 1 mg/d 5 d): 4 (26.7) n (%) | TEAEs by SOC: General disorders and administration site conditions (volunteers with CUD [1]; 1 mg/d 5 d): 0 n (%) | TEAEs by SOC: Infections and infestations (volunteers with CUD [1]; 1 mg/d 5 d): 0 n (%) | TEAEs by SOC: Injury, poisoning and procedural complications (volunteers with CUD [1]; 1 mg/d 5 d): 2 (13.3) n (%) | TEAEs by SOC: Investigations (volunteers with CUD [1]; 1 mg/d 5 d): 2 (13.3) n (%) | TEAEs by SOC: Musculoskeletal and connective tissue disorders (volunteers with CUD [1]; 1 mg/d 5 d): 2 (13.3) n (%) | TEAEs by SOC: Nervous system disorders (volunteers with CUD [1]; 1 mg/d 5 d): 3 (20.0) n (%) | TEAEs by SOC: Psychiatric disorders (volunteers with CUD [1]; 1 mg/d 5 d): 2 (13.3) n (%) | TEAEs by SOC: Renal and urinary disorders (volunteers with CUD [1]; 1 mg/d 5 d): 0 n (%) | TEAEs by SOC: Respiratory, thoracic and mediastinal disorders (volunteers with CUD [1]; 1 mg/d 5 d): 0 n (%) | TEAEs by SOC: Skin and subcutaneous tissue disorders (volunteers with CUD [1]; 1 mg/d 5 d): 1 (6.7) n (%) | cannabis self-administration (volunteers with CUD [2]; 1 mg, global crossover analysis): reduced | number of individuals choosing to self-administer cannabis (volunteers with CUD [2]; Treatment or Treatment x Dose, McNemar's test): no significant effect | effect on THC's effects on cAMP (human CB1): without modifying | THC impairment in sensory motor gating (PPI) (mice [3]): inhibited | % Inhibition (mice [3]; [6]): 100% | ID50 (mice [3]; [6]): 0.0045 mg/kg | ID100 (mice [3]; [6]): 0.015 mg/kg | genotoxic or mutagenic activity [4]: did not show any genotoxic or mutagenic activity | THC's effects on social interaction (mice [5]): inhibited | % Inhibition (mice [5]; [7]): 100% | ID50 (mice [5]; [7]): 0.005 mg/kg | ID100 (mice [5]; [7]): 0.015 mg/kg | adverse effects on behavior (Irwin test) and body temperature (rats): did not show any adverse effects
